From patent publication US20110136751A1, “Use of Polyphenols in the Treatment of Cancer” (Green Molecular, priority 2009, published 2011)

Key:
Assay in all cases: IC50 on cell viability, Cell Counting Kit-8
Assay type in all cases: cell-based
HT-29 = conditions: Homo sapiens; code 8, HT-29, Colorectal Adenocarcinoma; cell viability 120 h after administration
Description: (§1) A panel of 36 human cell lines were first tested in terms of population doubling time and growth curves to determine the conditions for further assays. The cells were also tested to determine the dose of radiation that produces 50% cell viability (D50). […] Cell viability was determined 120 h after the administration of the compounds using the Cell Counting Kit-8 (Dojindo Molecular Technologies, Inc, Rockville, Md.). In the experiments, 0.1% SDS and 1% DMSO were used as positive and negative controls, respectively. Final concentrations of the compounds used in the experiments are listed below in Table 5: […]

U-38 MG = conditions: Homo sapiens; code 13, U-38 MG, Brain Gliblastoma/astrocitoma; cell viability 120 h after administration
Description: as §1

KHOS-NP = conditions: Homo sapiens; code 28, KHOS-NP, Bone Osteosarcoma; cell viability 120 h after administration
Description: as §1

SH-SY5Y = conditions: Homo sapiens; code 16, SH-SY5Y, Brain Neuroblastoma; cell viability 120 h after administration
Description: as §1

A-204 = conditions: Homo sapiens, A204; code 35, A-204, Muscle Rhabdomyosarcoma; cell viability 120 h after administration
Description: as §1

LN229 = conditions: Homo sapiens, LN-229; code 11, LN229, Brain Gliblastoma; cell viability 120 h after administration
Description: as §1

SK-ES-1 = conditions: Homo sapiens, SK-ES1; code 30, SK-ES-1, Bone Osteosarcoma; cell viability 120 h after administration
Description: as §1

HT-1080 = conditions: Homo sapiens; code 9, HT-1080, Fibrosarcoma; cell viability 120 h after administration
Description: as §1

HPAF-II = conditions: Homo sapiens; code 32, HPAF-II, Pancreas Adenocarcinoma; cell viability 120 h after administration
Description: as §1

Panc-1 = conditions: Homo sapiens; code 34, Panc-1, Pancreas Carcinoma Epithiloid; cell viability 120 h after administration
Description: as §1

HBL-52 = conditions: Homo sapiens; code 19, HBL-52, Brain Meningioma; cell viability 120 h after administration
Description: as §1

A549 = conditions: Homo sapiens; code 22, A549, Lung Carcinoma; cell viability 120 h after administration
Description: as §1

SK-N-AS = conditions: Homo sapiens; code 17, SK-N-AS, Brain Neuroblastoma; cell viability 120 h after administration
Description: as §1

CHP-126 = conditions: Homo sapiens; code 14, CHP-126, Brain Neuroblastoma; cell viability 120 h after administration
Description: as §1

IMR-32 = conditions: Homo sapiens; code 15, IMR-32, Brain Neuroblastoma; cell viability 120 h after administration
Description: as §1

BT-20 = conditions: Homo sapiens; code 1, BT-20, Breast Carcinoma; cell viability 120 h after administration
Description: as §1

SK-MEL-2 = conditions: Homo sapiens; code 25, SK-MEL-2, Skin Melanoma; cell viability 120 h after administration
Description: as §1

HCT 116 = conditions: Homo sapiens; code 6, HCT 116, Colorectal Carcinoma; cell viability 120 h after administration
Description: as §1

A-172 = conditions: Homo sapiens; code 12, A-172, Brain Gliblastoma; cell viability 120 h after administration
Description: as §1

MDA-MB-231 = conditions: Homo sapiens; code 3, MDA-MB-231, Breast Adenocarcinoma; cell viability 120 h after administration
Description: as §1

NCI-H4BO = conditions: Homo sapiens; code 20, NCI-H4BO, Lung Carcinoma; cell viability 120 h after administration
Description: as §1

LN-18 = conditions: Homo sapiens; code 10, LN-18, Brain Gliblastoma; cell viability 120 h after administration
Description: as §1

MNNG-HOS = conditions: Homo sapiens; code 29, MNNG-HOS, Bone Osteosarcoma; cell viability 120 h after administration
Description: as §1

Colo 201 = conditions: Homo sapiens; code 5, Colo 201, Colorectal Adenocarcinoma; cell viability 120 h after administration
Description: as §1

MCF-7 = conditions: Homo sapiens, MCF7; code 2, MCF-7, Breast Adenocarcinoma; cell viability 120 h after administration
Description: as §1

MSTO-211H = conditions: Homo sapiens; code 21, MSTO-211H, Lung Biphasic Mesothelioma; cell viability 120 h after administration
Description: as §1

A375 = conditions: Homo sapiens, A-375; code 23, A375, Skin Melanoma; cell viability 120 h after administration
Description: as §1

HCT-15 = conditions: Homo sapiens; code 7, HCT-15, Colorectal Adenocarcinoma; cell viability 120 h after administration
Description: as §1

BxPC-3 = conditions: Homo sapiens; code 31, BxPC-3, Pancreas Adenocarcinoma; cell viability 120 h after administration
Description: as §1

C32 = conditions: Homo sapiens; code 24, C32, Skin Melanoma; cell viability 120 h after administration
Description: as §1

| IC50 (HT-29) [µM] | IC50 (SH-SY5Y) [µM] | IC50 (SK-ES-1) [µM] | IC50 (HT-1080) [µM] | IC50 (Panc-1) [µM] | IC50 (A549) [µM] | IC50 (SK-N-AS) [µM] | IC50 (BT-20) [µM] | IC50 (SK-MEL-2) [µM] | IC50 (HCT 116) [µM] | IC50 (MDA-MB-231) [µM] | SMILES | IC50 (U-38 MG) [µM] | IC50 (KHOS-NP) [µM] | IC50 (A-204) [µM] | IC50 (LN229) [µM] | IC50 (HPAF-II) [µM] | IC50 (HBL-52) [µM] | IC50 (CHP-126) [µM] | IC50 (IMR-32) [µM] | IC50 (A-172) [µM] | also measured |
| --- | --- | --- | --- | --- | --- | --- | --- | --- | --- | --- | --- | --- | --- | --- | --- | --- | --- | --- | --- | --- | --- |
| 18.7 | 4.38 | 8.2 | 5.54 | 62.5 | 13.4 | 19.8 | 9.21 | 11.6 | 56.9 | 20.7 | O=c1c(O)c(-c2ccc(O)c(O)c2)oc2cc(O)cc(O)c12 [QUER, quercetin] | 4.83 | 15.7 | 18.1 | 8.12 | 20.2 | 22.8 | 19.1 | 20.2 | 10 | IC50 (NCI-H4BO): 10.1 µM; IC50 (LN-18): 9.72 µM; IC50 (MNNG-HOS): 9.91 µM; IC50 (Colo 201): 18.1 µM; IC50 (MCF-7): 19.7 µM; IC50 (MSTO-211H): 19.8 µM; IC50 (A375): 19.6 µM; IC50 (HCT-15): 12.4 µM; IC50 (BxPC-3): 15.9 µM; IC50 (C32): 22.1 µM |
| 27.9 | 26.1 | 27.2 | 10.2 | 33 | 16.3 | 68.3 | 66 | 10.7 | 31.4 | 15.1 | Oc1ccc(/C=C/c2cc(O)cc(O)c2)cc1 [RI, trans-3,5,4′-trihydroxystilbene, reference compound] | 6.29 | 20 | 19 | 11.2 | 86.1 | 29.1 | 26.7 | 43 | 47.6 | IC50 (NCI-H4BO): 11.5 µM; IC50 (LN-18): 28.4 µM; IC50 (MNNG-HOS): 11.7 µM; IC50 (Colo 201): 37.4 µM; IC50 (MCF-7): 49.9 µM; IC50 (MSTO-211H): 6.37 µM; IC50 (A375): 24.9 µM; IC50 (HCT-15): > 100 µM; IC50 (BxPC-3): 13.6 µM; IC50 (C32): 18.5 µM |
| 28.4 | 31.7 | 42.7 | 17.8 | 50.1 | 25.8 | 29.1 | 96.9 | 17.3 | 45.2 | 62.8 | COc1cc(/C=C/c2ccc(O)cc2)cc(OC)c1 [t-PTER, trans-3,5-dimethoxy-4′-hydroxystilbene] | 29.7 | 25.6 | 23.4 | 14.3 | 55.6 | 33.2 | 1.42 | 42.8 | 29.7 | IC50 (NCI-H4BO): 16.6 µM; IC50 (LN-18): 18.1 µM; IC50 (MNNG-HOS): 12.3 µM; IC50 (Colo 201): 29.8 µM; IC50 (MCF-7): 39.4 µM; IC50 (MSTO-211H): 12.3 µM; IC50 (A375): 75.3 µM; IC50 (HCT-15): 49.5 µM; IC50 (BxPC-3): 31.1 µM; IC50 (C32): 30.2 µM |
